We go through three molecules from US9644181B2, “Cell preparation containing myocardium-committed cell” (RIKEN, priority 2012, dated 2017).

The subject of experiment [1] is adipose-tissue-derived multi-lineage/multi-potent progenitor cells (ADMPC). Description: Comparison of the induction of the expression of various markers by spermine and DMSO. The experiment is classed as cell-based, human. On the procedure:
(§1) Adipose tissues were provided by subjects from whom informed consent had been obtained by suction surgery from subcutaneous tissues. Neither steroid agent nor TZD had been administered to any of the subjects. Adipose tissues were cut into small pieces. Next, digestion was performed for 1 hour with shaking in 0.067% collagenase (Roche applied science)-containing Hanks' Balanced Salt Solution (HBSS) in a water bath at 37° C. The digested products were filtered through a Cell Strainer (BD Bioscience) and then centrifuged at 800 g for 10 minutes. Erythrocytes were removed by a specific gravity method using Lymphoprep (d=1.077) (Nycomed). The thus obtained Stromal Vascular Fraction (cells) was seeded into DMEM containing 10% fetal calf serum (Life Technologies). Cells were cultured for 24 hours so that they would adhere. After washing, the resultant was treated with EDTA, and ADMPC were thereby obtained. Next, ADMPC were seeded on a human-fibronectin-coated dish in medium I: 60% DMEM-low glucose, 40% MCDB201, […], 1 nM dexamethasone, 100 μM ascorbic acid, and 5% FBS at a density of 10,000 cells/cm^2, passaged 3 to 5 times, and then used for experiments.
(§2) Total RNA was isolated from the thus obtained cells using an RNeasy mini kit (Qiagen) according to protocols recommended by the manufacturer. Total RNA (500 ng) was subjected to DNase treatment, and then cDNA was synthesized using Superscript III reverse transcriptase RNase H (-) (Life Technologies).
(§3) Subsequently, TaqMan Universal PCR Master Mix (Applied Biosystems) (10 μl) and TaqMan Gene Expression Assays (Applied Biosystems) (1 μl) were added to the thus prepared cDNA (9 μl). Real-time PCR was performed using an Applied Biosystems 7900 Fast Real-Time PCR system under the following conditions: denaturation at 95° C. for 10 minutes and 40 cycles of 95° C. for 15 seconds and 60° C. for 1 minute. TaqMan probes and assay IDs (available from GenBank/NCBI (U.S.A.)) used for Islet-1, Nkx2.5, GATA-4, α-CA, cardiac troponin I, MLC, MHC, and GAPDH are listed in Table 1 below.
ADMPC passaged 4 times by plate culture were detached and washed with TrypLE Select (Life Technologies; the same applies hereafter) and were suspended at a concentration of 1×10^5/mL in Knockout-DMEM (Life Technologies; the same applies hereafter) supplemented with 0, 5, 25, 50, 100, 200, or 500 μM or 1 mM spermine (Wako Pure Chemical Industries, Ltd. (Japan); the same applies hereafter) and 20% KSR (Knockout Serum Replacement; Life Technologies; the same applies hereafter). 10 mL of cells was seeded on an EZ-Sphere low-adhesion culture dish (diameter: 10 cm, AGC; the same applies hereafter), and then suspension culture was performed. […]

For experiment [2] the test system is unchanged. Description: Induction of the expression of myocardium-committed-cell markers in ADMPC, concentration series (TaqMan PCR, GAPDH ratios). The class given is cell-based, human. On the procedure: as §1, §2, §3
ADMPC passaged 4 times by plate culture were detached and washed with TrypLE Select (Life Technologies; the same applies hereafter) and were suspended at a concentration of 1×10^5/mL in Knockout-DMEM (Life Technologies; […], Ltd. (Japan); the same applies hereafter) and 20% KSR (Knockout Serum Replacement; Life Technologies; the same applies hereafter). 10 mL of cells was seeded on an EZ-Sphere low-adhesion culture dish (diameter: 10 cm, AGC; the same applies hereafter), and then suspension culture was performed. After 24 hours, cells were collected, quantitative analysis of expression was performed by TaqMan PCR, and then GAPDH ratios were calculated.
(In general: In qPCR the cycle at which signal appears reflects the starting amount.)

Experiment [3] has the same test system. Conditions: FIG. 1. The protocol:
as §1
Total RNA was isolated from the thus obtained cells using an RNeasy mini kit (Qiagen) according to protocols recommended by the manufacturer. […]

`C[S+](C)[O-]` [DMSO]: in experiment [1] (0.1% in medium, 48 hours), the “Cardiac troponin I/DMSO ratio” value was found to be 1, the “Cardiac α-actin/DMSO ratio” value is on record as 1, the GATA4/DMSO ratio was 1 and the Isl1/DMSO ratio was determined as 1. Also, in experiment [1] (0.1% in medium, 48 hours), the MHC/DMSO ratio result is on record as “Not detected”, the MLC/DMSO ratio is on record as 1 and the Nkx2.5/DMSO ratio was 1.

For the molecule `NCCCCNCCCN` [spermidine], the “expression of isl-1, nkx2.5 and GATA-4” value in experiment [2] (spermidine 0, 5, 25, 50, 100, 200, 500 μM or 1 mM, suspension culture 24 hours) is listed as “expression was confirmed”. In addition, the “concentration at which all markers (isl-1, nkx2.5, GATA-4) exhibited the highest expression levels” value in experiment [2] (spermidine series 0-1 mM, 24 hours) came out at 200 µM.

Consider `NCCCNCCCCNCCCN` [Spermine, spermine], for which the “expression of isl-1, nkx2.5, GATA-4, α-CA, cardiac troponin I and MHC” value in experiment [2] (spermine 0, 5, 25, 50, 100, 200, 500 μM or 1 mM, suspension culture 24 hours) is “expression was confirmed”. The “concentration at which all markers exhibited the highest expression levels” value in experiment [2] (spermine series 0-1 mM, 24 hours) was 100 µM. The “effect of presence or absence of growth factors (EGF, bFGF) on the expression levels” value in experiment [3] (100 μM spermine) is “did not significantly affect”. Further, the “expression of isl-1, nkx2.5, GATA-4, α-CA, cardiac troponin I, MHC and MLC” value in experiment [3] (100 μM, 24, 72 and 120 hours) was “Expression was confirmed”. Besides, the “expression levels of all markers, treatment with spermine compared with treatment with DMSO” value in experiment [1] (100 μM spermine 24, 72, 120 hours vs 0.1% DMSO 48 hours) is reported as “several to several hundred times greater”. For the same molecule, in experiment [1] (100 μM, 1 day culture), the “Cardiac troponin I/DMSO ratio” value is on record as 7.91, the “Cardiac α-actin/DMSO ratio” value stood at 192.84, the GATA4/DMSO ratio is 3.75 and the Isl1/DMSO ratio is given as 6.79. Moreover, in experiment [1] (100 μM, 1 day culture), the MHC/DMSO ratio is 2.31 × 10^−6, the MLC/DMSO ratio is 0.67 and the Nkx2.5/DMSO ratio turned out to be 3.58. In experiment [1] (100 μM, 3 days culture), the “Cardiac troponin I/DMSO ratio” value is 25.16, the “Cardiac α-actin/DMSO ratio” value was 169.75, the GATA4/DMSO ratio amounted to 8.19 and the Isl1/DMSO ratio came to 10.44. In addition, in experiment [1] (100 μM, 3 days culture), the MHC/DMSO ratio was 3.74 × 10^−5, the MLC/DMSO ratio was 0.88 and the Nkx2.5/DMSO ratio is reported as 5.19. In experiment [1] (100 μM, 5 days culture), the “Cardiac troponin I/DMSO ratio” value was 11.87, the “Cardiac α-actin/DMSO ratio” value is 42.85, the GATA4/DMSO ratio was determined as 12.15 and the Isl1/DMSO ratio is given as 3.49. In experiment [1] (100 μM, 5 days culture), the MHC/DMSO ratio is listed as 7.67 × 10^−6, the MLC/DMSO ratio turned out to be 0.45 and the Nkx2.5/DMSO ratio came to 7.47.
